Data as given in publication PMC7801313, “Effect of lurbinectedin on the QTc interval in patients with advanced solid tumors: an exposure–response analysis” (Cancer Chemotherapy and Pharmacology, 2020).

Test: lurbinectedin plasma pharmacokinetics in the QT evaluation study
Type: in vivo, human
Method: In cycle 1 and cycle 2, the following triplicate ECGs were collected 5–10 min before their time-matched PK time points: 5 min before end of the lurbinectedin infusion (EOI), 30 min, 1, 3, 24, 72 (only on cycle 1), and 168 h after EOI.
Pharmacokinetic (PK) profiles of lurbinectedin were obtained on cycle 1 and cycle 2. Following ECGs’ acquisition, blood samples were collected into K3EDTA tubes. Tubes were gently inverted several times and centrifuged at 2000 × g for 10 min at 4 °C to separate the plasma.
Plasma concentrations of lurbinectedin were measured by a validated liquid chromatography–mass spectrometry assay (Dynakin S.L., Spain), with ranges of 0.1–50 µg/L. The within- and between-day precisions ranged from 2.7 to 12.9% and from 5.1 to 10.7%, respectively. The within- and between-day accuracy (bias) ranged from 10 to 12% and from 5 to 6%, respectively.
Datasets were prepared using SAS Enterprise Guide v.7.11 HF3 (SAS Institute Inc., Cary, NC, USA). Non-compartmental PK parameters were determined using Phoenix WinNonlin v.6.3 (Certara, USA). Non-linear mixed-effect modelling was performed in NONMEM v.7.3.0 (GloboMax LLC, Hanover, MD, USA). Graphical and all other statistical analyses were performed in R v.3.2.5 (R Foundation for Statistical Computing, Vienna, Austria).

COc1ccc2[nH]c3c(c2c1)CCN[C@]31CS[C@@H]2c3c(OC(C)=O)c(C)c4c(c3[C@H](COC1=O)N1[C@@H]2[C@H]2c3c(cc(C)c(OC)c3O)C[C@@H]([C@@H]1O)N2C)OCO4 [lurbinectedin, Lurbinectedin]
observed lurbinectedin concentration, mean (Stdv) (Cycle 1, 0.92 h after start of infusion (Cmax)): 106.02 (54.52) µg/L | observed lurbinectedin concentration, mean (Stdv) (Cycle 1, 1.5 h after start of infusion): 40.01 (24.35) µg/L | observed lurbinectedin concentration, mean (Stdv) (Cycle 1, 2 h after start of infusion): 27.22 (14.05) µg/L | observed lurbinectedin concentration, mean (Stdv) (Cycle 1, 4 h after start of infusion): 17.86 (8.07) µg/L | observed lurbinectedin concentration, mean (Stdv) (Cycle 1, 25 h after start of infusion): 3.84 (1.87) µg/L | observed lurbinectedin concentration, mean (Stdv) (Cycle 1, 73 h after start of infusion): 1.53 (1.13) µg/L | observed lurbinectedin concentration, mean (Stdv) (Cycle 1, 169 h after start of infusion): 0.51 (0.45) µg/L | observed lurbinectedin concentration, mean (Stdv) (Cycle 2, 0.92 h after start of infusion (Cmax)): 136.60 (145.04) µg/L | observed lurbinectedin concentration, mean (Stdv) (Cycle 2, 2 h after start of infusion): 28.22 (16.84) µg/L | observed lurbinectedin concentration, mean (Stdv) (Cycle 2, 4 h after start of infusion): 18.82 (10.94) µg/L | observed lurbinectedin concentration, mean (Stdv) (Cycle 2, 169 h after start of infusion): 0.56 (0.57) µg/L | Tmax (cycle 1): 0.92 h | mean clearance (non-compartmental) (cycle 1, 39 patients): 11.8 L/h | mean volume of distribution (non-compartmental) (cycle 1, 39 patients): 347.7 L | Tmax (cycle 2): 4 h
